Test results from patent US12097200B2, “Combination of BI853520 with chemotherapeutic drugs” (INXMED (NANJING) CO., LTD., priority 2020, dated 2024).
Where “and” joins values, the source holds several entries; their conditions need not be identical. Identical values can stand only once.

How the values were obtained:
CTG-1809 = test: Antitumor activity in ovarian cancer PDX model CTG-1809; format: in vivo, mouse; conditions: CTG-1809 (carboplatin and paclitaxel-resistant); 36 days until end of test; doses as Table 3
Protocol: (§3) Body weights (at start of dosing) were approximately 20 grams. […] Immunocompromised female mice were housed in HEPA ventilated cages (Innocage® IVC, Innovive USA) at 68-74° F. (20-23° C.) and 30-70% humidity under a 12-hour light/12-hour dark cycle. […] Animals with >10% body weight loss compared to day 0 received DietAel 76A (ClearH2O®, Portland, ME) for free. There were 3 mice in each group.
(§4) Mice were implanted with tumor cells from the ChampionsTumorGraft® ovarian model, which was established from patients previously treated with platinum-based therapy. After tumors reached 1000-1500 mm^3, they were collected, and tumor fragments SCs were implanted in the left flank of female pre-study mice. Each study animal was implanted with a specific passage batch. Tumor volume was measured twice a week with calipers to monitor tumor growth, and tumor volume (TV) was calculated using the formula (0.52×[length×width^2]). […] After initiation of dosing, animals were weighed daily using a digital scale and TV was measured twice weekly. […]
(§5) Inhibitory effect on tumor growth was determined by calculating TGI (100%×[1−(final MTV−initial MTV of the treatment group)/(final MTV−initial MTV of the control group)]). […]
(§6) CR: no TV could be detected (<4×4 mm^2), in 2 consecutive measurements […]

CTG-0958 = test: Antitumor activity in ovarian cancer PDX model CTG-0958; format: in vivo, mouse; conditions: 52 days until end of test, doses as Table 3
Protocol: as §3, §4, §5, §6

PC-3 cells = test: Antitumor activity in mouse xenograft model of human prostate cancer (PC-3); conditions: PC-3 xenograft, combination of both
KYSE-70 cells = test: Antitumor activity in mouse xenograft model of human esophageal cancer (KYSE-70); format: in vivo; conditions: KYSE-70 xenograft, combination of both
CTG-1624 = test: Antitumor activity in ovarian cancer PDX model CTG-1624; format: in vivo, mouse; conditions: 38 days until end of test, doses as Table 3
Protocol: as §3, §4, §5, §6

CTG-0992 = test: Antitumor activity in ovarian cancer PDX model CTG-0992; format: in vivo, mouse; conditions: CTG-0992 (carboplatin and paclitaxel-resistant); 60 days until end of test; doses as Table 3
Protocol: as §3, §4, §5, §6

HS 746T cells = test: Antitumor activity in mouse xenograft model of human gastric cancer (HS 746T); format: in vivo; conditions: HS 746T xenograft, combination of both
From the text: (§1) For tumor volume, absolute values were used.
(§2) Appropriate statistical methods were used for evaluation.
HS 746T: Approximately 6 week old mice.

CTG-1498 = test: Antitumor activity in ovarian cancer PDX model CTG-1498; format: in vivo, mouse; conditions: CTG-1498 (carboplatin and paclitaxel-resistant); 98 days until end of test; doses as Table 3
Protocol: as §3, §4, §5, §6

CTG-1433 = test: Antitumor activity in ovarian cancer PDX model CTG-1433; format: in vivo, mouse; conditions: CTG-1433 (carboplatin and paclitaxel-resistant); 49 days until end of test; doses as Table 3
Protocol: as §3, §4, §5, §6

CTG-0791 = test: Antitumor activity in ovarian cancer PDX model CTG-0791; format: in vivo, mouse; conditions: CTG-0791 (carboplatin and paclitaxel-resistant); 35 days until end of test; doses as Table 3
Protocol: as §3, §4, §5, §6

CTG-0257 = test: Antitumor activity in ovarian cancer PDX model CTG-0257; format: in vivo, mouse; conditions: 30 days until end of test, doses as Table 3
Protocol: as §3, §4, §5, §6

CTG-1427 = test: Antitumor activity in ovarian cancer PDX model CTG-1427; format: in vivo, mouse; conditions: 42 days until end of test, doses as Table 3
Protocol: as §3, §4, §5, §6

CTG-1301 = test: Antitumor activity in ovarian cancer PDX model CTG-1301; format: in vivo, mouse; conditions: CTG-1301 (carboplatin and paclitaxel-resistant); 38 days until end of test; doses as Table 3
Protocol: as §3, §4, §5, §6

CTG-0956 = test: Antitumor activity in ovarian cancer PDX model CTG-0956; format: in vivo, mouse; conditions: CTG-0956 (carboplatin and paclitaxel-resistant); 67 days until end of test; doses as Table 3
Protocol: as §3, §4, §5, §6

CTG-0964 = test: Antitumor activity in ovarian cancer PDX model CTG-0964; format: in vivo, mouse; conditions: CTG-0964 (carboplatin and paclitaxel-resistant); 35 days until end of test; doses as Table 3
Protocol: as §3, §4, §5, §6

CTG-1602 = test: Antitumor activity in ovarian cancer PDX model CTG-1602; format: in vivo, mouse; conditions: 14 days until end of test, doses as Table 3
Protocol: as §3, §4, §5, §6

KYSE-270 cells = test: Antitumor activity in mouse xenograft model of human esophageal cancer (KYSE-270); format: in vivo; conditions: KYSE-270 xenograft, combination of both
From the text: as §1, §2
Mice were approximately 8-10 weeks old.
KYSE-270 was a cell line for esophageal cancer (Public Health England, Cat. No. 94072021).

SKOV-3 cells = test: Antitumor activity in mouse model of human ovarian cancer (SKOV-3 xenograft); format: in vivo; conditions: combination of both
From the text: as §1, §2
SKOV-3 cells harboring CDKN2, MLH1, PIK3CA and TP53 gene mutations were obtained from ATCC (HTB-77).
PLD (Doxil) was purchased from Johnson & Johnson and dissolved in sterile 5% glucose solution.
Treatment was initiated when the median tumor volume was between 70 and 110 mm^3.

CTG-1395 = test: Antitumor activity in ovarian cancer PDX model CTG-1395; format: in vivo, mouse; conditions: 33 days until end of test, doses as Table 3
Protocol: as §3, §4, §5, §6

CTG-0252 = test: Antitumor activity in ovarian cancer PDX model CTG-0252; format: in vivo, mouse; conditions: 7 days until end of test, BI 853520 50 mg/kg PO BID, PLD 3 mg/kg IV q7d, carboplatin 25 mg/kg IP + paclitaxel 20 mg/kg IV q7d
Protocol: as §3, §4, §5, §6

CTG-1166 = test: Antitumor activity in ChampionsTumorGraft PDX ovarian cancer model CTG-1166
Protocol: as §3
Mice were implanted with tumor cells from the ChampionsTumorGraft® ovarian model, which was established from patients previously treated with platinum-based therapy. After tumors reached 1000-1500 mm^3, they were collected, and tumor fragments SCs were implanted in the left flank of female pre-study mice. Each study animal was implanted with a specific passage batch. Tumor volume was measured twice a week with calipers to monitor tumor growth, and tumor volume (TV) was calculated using the formula (0.52×[length×width^2]). When TV reached approximately 250-350 mm^3 (average 300 mm^3), animals were matched to tumor size and assigned to the control or treatment groups (study mice) and dosing started on day 0. After initiation of dosing, animals were weighed daily using a digital scale and TV was measured twice weekly. The study was terminated when the mean tumor volume in the control group reached approximately 1500 mm^3 or until day 60. In some models, the study was extended beyond Day 60 and dosing was also extended to the end of the study. Individual animals could be removed from the study when tumor volume reaches approximately 1500 mm^3.
Control 1: 0.5% Natrosol; control 2: 5% sterile glucose.
The control group for oral administration was 0.5% Natrosol. The control group for intravenous administration was 5% sterile glucose.
Carboplatin was a pre-formulated 10 mg/mL stock solution. PLD was a pre-formulated 2 mg/mL stock solution. Paclitaxel was a pre-formulated 6 mg/mL stock solution. These standard chemotherapeutic drugs were provided by Champions.
Data for each group, including body weight for each animal and mean body weight, were recorded, and the percentage change in mean body weight (% vD0) for each group relative to Day 0 was recorded, and the % vD0 was plotted at the completion of the study.
Animal deaths were recorded daily and determined as drug-related (D), technical (T), tumor-related (B), or unknown (U) based on weight loss and by visual inspection. […] The maximum mean % vD0 (body weight nadir) for each treatment group was reported at the end of the study.
Inhibitory effect on tumor growth was determined by calculating TGI (100%×[1−(final MTV−initial MTV of the treatment group)/(final MTV−initial MTV of the control group)]). Treatment was started on day 0. Tumor volumes in the treatment group were compared with those in the control group on the day the study was completed.
Other endpoints used to assess efficacy included number of CR, PR and TFS. PR and TFS were considered to exclude CR.
PR: TV≤30% of TV on day 0, in 2 consecutive measurements
CR: no TV could be detected (<4×4 mm^2), in 2 consecutive measurements
TFS: CR that persisted until the study was completed
Data were used for statistical analysis at the end of the study. Statistical comparisons of tumor volumes were performed using one-way analysis of variance followed by Newman-Keuls multiple comparison test to compare differences between all groups. Selected endpoints included as many groups as possible and as many animals per group as possible.
Tumor volumes from animals removed early due to tumor volume ≥1500 mm^3 were carried forward for analysis, but not more than 4 consecutive measurement time points.

CTG-0868 = test: Antitumor activity in ovarian cancer PDX model CTG-0868; format: in vivo, mouse; conditions: 25 days until end of test, doses as Table 3
Protocol: as §3, §4, §5, §6

[1] = test system: GXA 3039 gastric cancer PDX model
Protocol: Mice were housed in individual ventilated cages ([sequence] Sealsafe™-IVC-System, [sequence], Hohenpeissenberg, Germany), and type II or III cages were selected according to the number of experimental animals. The cages were under the conditions: 14L:10D light-dark cycle, air exchange (AC) rate of 60-65 AC/hr in the cage, 25±1° C. and 40-70% humidity. […] Water and diet were changed twice a week, and all materials were autoclaved before use.
Tumor fragments were implanted subcutaneously into the flank of female pre-study mice. […] Animals that were not randomized were euthanized. The date of randomization was designated as day 0 of the test, and dosing began on day 1. […] If less than 70% of the original number of mice survived (i.e. less than 6 out of 8), the entire group was terminated. […] Tolerability was assessed using the group with the largest median body weight loss (BWL) among groups.
Inhibition of tumor growth was determined by calculating TGI.
Additional endpoints used to assess efficacy included: time to tumor volume doubling/quadrupling and tumor growth delay/time to tumor progression/tumor repopulation.
Time to tumor volume doubling/quadrupling: The time to tumor volume doubling/quadrupling (Td/Tq) for the test and control groups was defined as the time interval (in days) required for each group to reach 200%/400% of the median RTV. The relative volume of a single tumor on day X (RTVx [%]) was obtained by dividing the absolute volume of the tumor on day X (Tx) by the absolute volume of the tumor on day 0 (T0) and then multiplying it by 100, as follows:
Tumor growth delay/time to tumor progression/tumor repopulation: To assess the difference in time to tumor progression/tumor repopulation after tumor regression during the no-dose observation period (tumor growth delay, TGD), Kaplan-Meier survival analysis was used. A relative tumor volume of 400% was defined as the endpoint.
The control group for oral administration was 0.5% Natrosol. The control group for intravenous administration was 0.9% saline. Each dose was 10 ml/kg.
Data were used for statistical analysis at the end of the study. The one-tailed nonparametric Mann-Whitney-Wilcoxon U test was used with the significance level a set at 0.05. The p-values obtained from the U-test were adjusted using the Bonferroni-Holm correction.
To assess the statistical significance of differences in time to tumor progression/tumor growth delay (TGD) using 400% of RTV as the trial endpoint, the Kaplan-Meier survival mode statistic was used in conjunction with the log-rank Mantel-Cox test for pairwise comparisons.
Additionally, to assess tolerance to treatment, a two-tailed nonparametric Mann-Whitney-Wilcoxon U test was performed using body weights determined at the end of the dosing period (i.e., on the day TGI values were calculated).
By convention, p-values≤0.05 represented significant tumor inhibition or weight loss.

[2] = BI 853520 25 mg/kg qd, docetaxel 7.5 mg/kg q7d
[3] = BI 853520 50 mg/kg qd, docetaxel 10 mg/kg q7d
[4] = BI 853520 50 mg/kg qd, paclitaxel 10 mg/kg q7d
[5] = CTG-1166 PDX, Day 0-56, n=3 per group, doses as Table 4
[6] = CTG-1166 PDX, day 17, BI 853520 50 mg/kg PO BID, PLD 3 mg/kg IV q7d, carboplatin 25 mg/kg IP q7dx3 + paclitaxel 20 mg/kg IV q7dx3

For COc1cc(C(=O)NC2CCN(C)CC2)c(F)cc1Nc1ncc(C(F)(F)F)c(Oc2cccc3c2C(=O)N(C)C3)n1 [BI 853520, 2-fluoro-5-methoxy-4-[(4-(2-methyl-3-oxo-2,3-dihydro-1H-isoindole-4-oxy)-5-trifluoromethyl-pyrimidin-2-yl)amino]-N-(1-methyl-piperidin-4-yl)benzamide], the “TGI (%)” value (CTG-1809) was −58%, the “TGI (%)” value (CTG-0958) was 99% and the Median tumor volume (PC-3 cells; day 35 (withdrawal on day 28), BI 853520 25 mg/kg qd by gavage, docetaxel 7.5 mg/kg q7d i.v.) was 316 mm^3. The “Antitumor effect (in words)” value (PC-3 cells; [2]) was “certain inhibitory effect on tumor growth”, the “Change in median body weight” value (PC-3 cells; [2]) was 2.4% and the TGI (PC-3 cells; [2]) was 66%. For the same compound, the “Tumor regression (animals with regression/animals in group)” value (PC-3 cells; [2]) was 0/7, the Median tumor volume (KYSE-70 cells; day 42, BI 853520 50 mg/kg qd by gavage, docetaxel 10 mg/kg q7d i.v.) was 497 mm^3 and the “Antitumor effect (in words)” value (KYSE-70 cells; [3]) was “no inhibitory effect on tumor growth”. The “Change in median body weight” value (KYSE-70 cells; [3]) was 8.8%, the TGI (KYSE-70 cells; [3]) was 42% and the “Tumor regression (animals with regression/animals in group)” value (KYSE-70 cells; [3]) was 1 of the 7 and 1/7. For the same compound, the “TGI (%)” value (CTG-1624) was 22%, the “TGI (%)” value (CTG-0992) was 49% and the Median tumor volume (HS 746T cells; day 24 (withdrawal on day 28), BI 853520 50 mg/kg qd by gavage, docetaxel 10 mg/kg q7d i.v.) was 229 mm^3. For the same compound, the “Antitumor effect (in words)” value (HS 746T cells; [3]) was “had inhibitory effect”, the “Change in median body weight” value (HS 746T cells; [3]) was 7.3% and the TGI (HS 746T cells; [3]) was 93%. The “Tumor regression (animals with regression/animals in group)” value (HS 746T cells; [3]) was 1 of 8 and 1/8, the “TGI (%)” value (CTG-1498) was 128% and the “TGI (%)” value (CTG-1433) was 61%. The “TGI (%)” value (CTG-0791) was −21%, the “TGI (%)” value (CTG-0257) was 67% and the “TGI (%)” value (CTG-1427) was 59%. For the same compound, the “TGI (%)” value (CTG-1301) was 43%, the “TGI (%)” value (CTG-0956) was 77% and the “TGI (%)” value (CTG-0964) was 66%. The “TGI (%)” value (CTG-1602) was −1%, the Median tumor volume (KYSE-270 cells; day 13, BI 853520 50 mg/kg qd by gavage, paclitaxel 10 mg/kg q7d i.v.) was 126 mm^3 and the TGI (KYSE-270 cells; day 13, BI 853520 50 mg/kg qd, paclitaxel 10 mg/kg q7d) was 106%. For the same compound, the “Antitumor effect (in words)” value (KYSE-270 cells; [4]) was “had inhibitory effect on tumor growth”, the “Change in median body weight” value (KYSE-270 cells; [4]) was 2.8% and the “Tumor regression (animals with regression/animals in group)” value (KYSE-270 cells; [4]) was 6 of 7 and 6/7. The TGI (SKOV-3 cells; day 1 to day 22, median tumor volumes, BI 853520 50 mg/kg qd, PLD 5 mg/kg q7d) was 57%, the Median tumor volume (SKOV-3 cells; day 22, BI 853520 50 mg/kg qd by gavage, PLD 5 mg/kg q7d i.v.) was 306 mm^3 and the “Tumor regression (animals with regression/animals in group)” value (SKOV-3 cells; day 22, BI 853520 50 mg/kg qd, PLD 5 mg/kg q7d) was “no tumor regression and 0/7”. The “TGI (%)” value (CTG-1395) was 41%, the “TGI (%)” value (CTG-0252) was 54% and the “#CR (complete responses)” value (CTG-1166; [5]) was 0/0/0. For the same compound, the “#PR (partial responses)” value (CTG-1166; [5]) was 0/0/0, the “#TFS (tumor-free survivors)” value (CTG-1166; [5]) was 0/0/0 and the “Body weight (day 17) % vD0” value (CTG-1166; CTG-1166 PDX, day 17, change in mean body weight relative to Day 0) was 4.0%. For the same compound, the “% TGI” value (CTG-1166; [6]) was 89%, the “Tumor volume (day 17) Mean ± SEM” value (CTG-1166; [6]) was 366 ± 78 mm^3 and the “Dead Total” value (CTG-1166; CTG-1166 PDX, animal deaths, n=3 per group) was 0. The “Body weight nadir Day” value (CTG-1166; CTG-1166 PDX, day of body weight nadir) was 13, the “Antitumor activity (in words)” value (CTG-1166; CTG-1166 PDX, doses as Table 4) was “significant inhibitory effect on tumor growth” and the “Body weight (day 17) Mean ± SEM” value (CTG-1166; mouse, in vivo) was 26.7 ± 0.4 g. For the same compound, the “Body weight nadir % vD0(max)” value (CTG-1166; mouse, in vivo, po, 50 mg/kg) was −0.7%, the “TGI (%)” value (CTG-0868) was 54% and the “Antitumor effect (in words)” value ([1]; GXA 3039 PDX, doses as Table 8) was “did not show any antitumor efficacy”. The “Td (time to tumor volume doubling)” value ([1]; GXA 3039 PDX, time to 200% of median RTV, doses as Table 8) was 8.1 days, the “Tq (time to tumor volume quadrupling)” value ([1]; GXA 3039 PDX, time to 400% of median RTV, nr = not reached until end of test, doses as Table 8) was 41.2 days and the “TGI [%] (d)” value ([1]; GXA 3039 gastric cancer PDX, day 36, BI 853520 50 mg/kg/d PO days 1-35, docetaxel 10 mg/kg IV days 1, 8, 15, 22, 29, combination of both) was 0% and 0(36) %. For the same compound, the Survival rate ([1]; female, BomTac:NMRI-Foxn1nu, mouse, in vivo) was 4/8.
